This passage reports zone of inhibition and Activity results from ChEMBL document CHEMBL3044696, “Synthesis, antimalarial-, and antibacterial activity evaluation of some new 4-aminoquinoline derivatives” (2013).

Experiment [1] concerns Klebsiella pneumoniae. As to the kind of experiment: Antibacterial activity against Klebsiella pneumoniae ATCC 33495 assessed as growth inhibition at 25 ug/disk after 24 hr by Kirby-Bauer disk diffusion method. The conditions noted are these: ATCC 33495, 24 h, read-out: DIZ. The experiment is classed as functional. A general note: A growth-free zone around the sample is the usual read-out of agar diffusion tests.

Experiment [2] relates to Klebsiella pneumoniae. As to the kind of experiment: Antibacterial activity against Klebsiella pneumoniae ATCC 33495 assessed as growth inhibition at 50 ug/disk after 24 hr by Kirby-Bauer disk diffusion method. It is filed as functional. The conditions noted are these: ATCC 33495, 24 h, read-out: DIZ.
Experiment [3] concerns Pseudomonas aeruginosa. Briefly: Antibacterial activity against Pseudomonas aeruginosa ATCC 10662 assessed as growth inhibition at 25 ug/disk after 24 hr by Kirby-Bauer disk diffusion method. The experiment is classed as functional. The conditions noted are these: ATCC 10662, 24 h, read-out: DIZ.
Experiment [4] has as its system Bacillus subtilis. As to the kind of experiment: Antibacterial activity against Bacillus subtilis ATCC 11774 assessed as growth inhibition at 25 ug/disk after 24 hr by Kirby-Bauer disk diffusion method. It is filed as functional. The conditions noted are these: ATCC 11774, 24 h, read-out: DIZ.
Experiment [5] concerns Plasmodium falciparum. Briefly: Antimalarial activity against chloroquine-sensitive Plasmodium falciparum 3D7 infected human RBC assessed as dead ring and trophozoite stage of parasite at 50 ug/mL after 40 hr by Giemsa staining-based light microscopic analysis relative to control. It is filed as functional.
In experiment [6] the test system is Staphylococcus aureus. As to the kind of experiment: Antibacterial activity against Staphylococcus aureus ATCC BAA 1026 assessed as growth inhibition at 50 ug/disk after 24 hr by Kirby-Bauer disk diffusion method. It is filed as functional. The conditions noted are these: ATCC BAA 1026, 24 h, read-out: DIZ.
In experiment [7] the test system is Bacillus cereus. Briefly: Antibacterial activity against Bacillus cereus ATCC 10876 assessed as growth inhibition at 25 ug/disk after 24 hr by Kirby-Bauer disk diffusion method. It is filed as functional. The conditions noted are these: ATCC 10876, 24 h, read-out: DIZ.
Experiment [8] has as its system Bacillus subtilis. Briefly: Antibacterial activity against Bacillus subtilis ATCC 11774 assessed as growth inhibition at 50 ug/disk after 24 hr by Kirby-Bauer disk diffusion method. The experiment is classed as functional. The conditions noted are these: ATCC 11774, 24 h, read-out: DIZ.
Experiment [9] concerns Escherichia coli. Briefly: Antibacterial activity against Escherichia coli ATCC 10536 assessed as growth inhibition at 25 ug/disk after 24 hr by Kirby-Bauer disk diffusion method. It is filed as functional. The conditions noted are these: ATCC 10536, 24 h, read-out: DIZ.
Experiment [10] deals with Escherichia coli. As to the kind of experiment: Antibacterial activity against Escherichia coli ATCC 10536 assessed as growth inhibition at 50 ug/disk after 24 hr by Kirby-Bauer disk diffusion method. The experiment is classed as functional. The conditions noted are these: ATCC 10536, 24 h, read-out: DIZ.
Experiment [11] deals with Staphylococcus aureus. Briefly: Antibacterial activity against Staphylococcus aureus ATCC BAA 1026 assessed as growth inhibition at 25 ug/disk after 24 hr by Kirby-Bauer disk diffusion method. It is filed as functional. The conditions noted are these: ATCC BAA 1026, 24 h, read-out: DIZ.
For experiment [12], the system named is Bacillus subtilis. Briefly: Antibacterial activity against Bacillus subtilis ATCC 11774 assessed as growth inhibition at 5 ug/disk after 24 hr by Kirby-Bauer disk diffusion method. The experiment is classed as functional. The conditions noted are these: ATCC 11774, 24 h, read-out: DIZ.
Experiment [13] concerns Staphylococcus aureus. As to the kind of experiment: Antibacterial activity against Staphylococcus aureus ATCC BAA 1026 assessed as growth inhibition at 5 ug/disk after 24 hr by Kirby-Bauer disk diffusion method. The experiment is classed as functional. The conditions noted are these: ATCC BAA 1026, 24 h, read-out: DIZ.
The test system of experiment [14] is Bacillus cereus. As to the kind of experiment: Antibacterial activity against Bacillus cereus ATCC 10876 assessed as growth inhibition at 5 ug/disk after 24 hr by Kirby-Bauer disk diffusion method. It is filed as functional. The conditions noted are these: ATCC 10876, 24 h, read-out: DIZ.
In experiment [15] the test system is Escherichia coli. Briefly: Antibacterial activity against Escherichia coli ATCC 10536 assessed as growth inhibition at 5 ug/disk after 24 hr by Kirby-Bauer disk diffusion method. The conditions noted are these: ATCC 10536, 24 h, read-out: DIZ. It is filed as functional.
Experiment [16] concerns Klebsiella pneumoniae. Briefly: Antibacterial activity against Klebsiella pneumoniae ATCC 33495 assessed as growth inhibition at 5 ug/disk after 24 hr by Kirby-Bauer disk diffusion method. The experiment is classed as functional. The conditions noted are these: ATCC 33495, 24 h, read-out: DIZ.
Experiment [17] has as its system Pseudomonas aeruginosa. Briefly: Antibacterial activity against Pseudomonas aeruginosa ATCC 10662 assessed as growth inhibition at 5 ug/disk after 24 hr by Kirby-Bauer disk diffusion method. The experiment is classed as functional. The conditions noted are these: ATCC 10662, 24 h, read-out: DIZ.
Experiment [18] concerns Pseudomonas aeruginosa. As to the kind of experiment: Antibacterial activity against Pseudomonas aeruginosa ATCC 10662 assessed as growth inhibition at 50 ug/disk after 24 hr by Kirby-Bauer disk diffusion method. The conditions noted are these: ATCC 10662, 24 h, read-out: DIZ. It is filed as functional.
The test system of experiment [19] is Plasmodium falciparum. Briefly: Antimalarial activity against chloroquine-sensitive Plasmodium falciparum 3D7 infected human RBC assessed as dead ring and trophozoite stage of parasite at 0.4 ug/mL after 40 hr by Giemsa staining-based light microscopic analysis relative to control.

Regarding `CN(C)c1ccc(C2SCCC(=O)N2CCCNc2ccnc3cc(Cl)ccc23)cc1` (centres undefined), the zone of inhibition at 25 µg/disc in the experiment with Klebsiella pneumoniae [1] stood at 14.1 mm; in the experiment with Pseudomonas aeruginosa [3], 13.7 mm; with Bacillus subtilis [4], 14.3 mm; in the experiment with Bacillus cereus [7], 14 mm; in the experiment with Escherichia coli [9], 14.3 mm; in the experiment on Staphylococcus aureus [11], 13.9 mm. Further, the zone of inhibition at 50 µg/disc with Klebsiella pneumoniae [2] was found to be 24.1 mm; in the experiment on Staphylococcus aureus [6], 23.9 mm; in the experiment on Bacillus subtilis [8], 23.7 mm; in the experiment on Escherichia coli [10], 23.9 mm. The Activity in the experiment with Plasmodium falciparum [5] amounted to 25%.

Regarding `Cc1ccc(C2SCCC(=O)N2CCCNc2ccnc3cc(Cl)ccc23)s1` (centres undefined), the zone of inhibition at 25 µg/disc in the experiment with Klebsiella pneumoniae [1] was 13.9 mm; with Pseudomonas aeruginosa [3] it was 13.9 mm; with Bacillus subtilis [4], 14.2 mm; with Bacillus cereus [7] it was 13.9 mm; in the experiment with Escherichia coli [9], 14.2 mm; in the experiment on Staphylococcus aureus [11], 14 mm. In addition, the zone of inhibition at 50 µg/disc in the experiment on Klebsiella pneumoniae [2], with Staphylococcus aureus [6] and in the experiment on Bacillus subtilis [8] was 23.9 mm in each case. The Activity in the experiment with Plasmodium falciparum [5] is recorded as 22%.

As for `CC1COc2c(N3CCN(C)CC3)c(F)cc3c(=O)c(C(=O)O)cn1c23` (centres undefined) [OFLOXACIN], the zone of inhibition at 5 µg/disc in the experiment with Bacillus subtilis [12] came to 20.7 mm; in the experiment on Staphylococcus aureus [13], 21.7 mm; with Bacillus cereus [14], 20.3 mm; in the experiment with Escherichia coli [15], 21.5 mm; with Klebsiella pneumoniae [16] it was 20.3 mm; in the experiment with Pseudomonas aeruginosa [17], 20.8 mm.

For `CCC1SCCC(=O)N1CCCNc1ccnc2cc(Cl)ccc12` (centres undefined), the zone of inhibition at 25 µg/disc came to 13.2 mm in the experiment with Klebsiella pneumoniae [1]; 13.5 mm in the experiment on Pseudomonas aeruginosa [3]; 13.1 mm with Bacillus subtilis [4]; 13.5 mm with Bacillus cereus [7]; 13.7 mm in the experiment with Escherichia coli [9]; 12.9 mm with Staphylococcus aureus [11]. Moreover, the zone of inhibition at 50 µg/disc was 23.1 mm in the experiment with Klebsiella pneumoniae [2]; 23.1 mm with Staphylococcus aureus [6]; 23.2 mm with Bacillus subtilis [8]; 23.4 mm in the experiment on Escherichia coli [10]; 23.1 mm in the experiment on Pseudomonas aeruginosa [18]. Further, the Activity in the experiment with Plasmodium falciparum [5] came to 18.5%.

In the case of `COc1ccc(C2SCCC(=O)N2CCCNc2ccnc3cc(Cl)ccc23)cc1` (centres undefined), the zone of inhibition at 25 µg/disc in the experiment with Klebsiella pneumoniae [1] was determined as 14.1 mm; in the experiment with Pseudomonas aeruginosa [3], 14.3 mm; in the experiment with Bacillus subtilis [4], 14.2 mm; with Bacillus cereus [7] it was 14.3 mm; with Escherichia coli [9], 14.2 mm; in the experiment with Staphylococcus aureus [11], 14.1 mm. In addition, the zone of inhibition at 50 µg/disc in the experiment with Klebsiella pneumoniae [2] turned out to be 24.2 mm; with Staphylococcus aureus [6], 24.1 mm; with Bacillus subtilis [8], 23.3 mm; in the experiment with Escherichia coli [10], 24.4 mm. In addition, the Activity in the experiment on Plasmodium falciparum [5] is recorded as 32%.

Regarding `O=C1CCSC(c2ccco2)N1CCCNc1ccnc2cc(Cl)ccc12` (centres undefined), the zone of inhibition at 25 µg/disc in the experiment with Klebsiella pneumoniae [1] stood at 14.2 mm; in the experiment on Pseudomonas aeruginosa [3], 13.7 mm; with Bacillus subtilis [4], 14.1 mm; in the experiment with Bacillus cereus [7], 14.2 mm; in the experiment with Escherichia coli [9], 14 mm; in the experiment with Staphylococcus aureus [11] it was 14.3 mm. The zone of inhibition at 50 µg/disc in the experiment with Klebsiella pneumoniae [2] was 24.1 mm; in the experiment on Staphylococcus aureus [6], 24.2 mm; in the experiment with Bacillus subtilis [8], 23.5 mm; in the experiment with Escherichia coli [10], 24.1 mm. The Activity with Plasmodium falciparum [5] came out at 38.5%.

On to `CCN(CC)CCCC(C)Nc1ccnc2cc(Cl)ccc12` (centres undefined) [CHLOROQUINE], for which, in the experiment on Plasmodium falciparum [19], the Activity is recorded as 67%.

With `O=C1CCSC(c2ccccc2F)N1CCCNc1ccnc2cc(Cl)ccc12` (centres undefined), the zone of inhibition at 25 µg/disc was determined as 14.3 mm with Klebsiella pneumoniae [1]; 14.1 mm in the experiment on Pseudomonas aeruginosa [3]; 18.8 mm with Bacillus subtilis [4]; 14.3 mm in the experiment on Bacillus cereus [7]; 14.3 mm with Escherichia coli [9]; 14.2 mm in the experiment on Staphylococcus aureus [11]. For the same compound, the Activity in the experiment with Plasmodium falciparum [5] amounted to 39%. For the same compound, in the experiment on Staphylococcus aureus [6], the zone of inhibition at 50 µg/disc is 23.9 mm.

For the compound `O=C1CCSC(c2cccc(O)c2)N1CCCNc1ccnc2cc(Cl)ccc12` (centres undefined), the zone of inhibition at 25 µg/disc is 14 mm in the experiment with Klebsiella pneumoniae [1]; 13.9 mm with Pseudomonas aeruginosa [3]; 13.8 mm with Bacillus subtilis [4]; 14.1 mm with Bacillus cereus [7]; 13.9 mm in the experiment on Escherichia coli [9]; 14.3 mm with Staphylococcus aureus [11]. Further, in the experiment on Plasmodium falciparum [5], the Activity was 39.5%. Moreover, the zone of inhibition at 50 µg/disc in the experiment on Escherichia coli [10] was found to be 24.3 mm; in the experiment on Pseudomonas aeruginosa [18], 23.9 mm.
